For experiment [1], the target named is T1, MC1-R (B-16 mouse melanoma cells) (Mus musculus, UniProt Q01727).
T1 construct: membranes prepared from hMC3-R, hMC4-R, hMC5-R, and B-16 mouse melanoma cells (containing MC1-R); endogenous in cells; host or cells: B-16 mouse melanoma cells (membranes)
The experiment is described as follows: Ki determination by the method of Example 3, MC1-R. In kind it is cell-based.

The target in another experiment is T2, hMC3-R (Homo sapiens, UniProt P41968).
T2 construct: expressed in transfected cells
The experiment is described as follows: Competitive inhibition binding assay, 125I-NDP-α-MSH, hMC3-R. Particulars: 1 μM test compound, 0.4 nM 125I-NDP-α-MSH, hMC3-R membranes, mean of triplicates, results less than 0% reported as 0%; for inhibition at 1 µM: read-out: Inhibition at 1 μM MC3-R. Here is the method:
(§1) A competitive inhibition binding assay was conducted using membranes prepared from hMC3-R, hMC4-R, hMC5-R, and B-16 mouse melanoma cells (containing MC1-R) using 0.4 nM ^125I-NDP-α-MSH (New England Nuclear, Boston, Mass., USA) in 50 mM HEPES buffer containing 1 mM MgCl2, 2 mM CaCl2, and 5 mM KCl, at pH 7.2. The assay tube also contained a chosen concentration of the test compound of this invention, typically a 1 μM concentration, for determining its efficacy in inhibiting the binding of ^125I-NDP-α-MSH to its receptor.
(§2) Incubation was for 90 minutes at room temperature, after which the assay mixture was filtered and the membranes washed three times with ice cold buffer. The filter was dried and counted in a gamma counter for remaining radioactivity bound to the membranes. 100% specific binding was defined as the difference in radioactivity (cpm) bound to cell membranes in the absence and presence of 1 μM α-MSH. […] Each assay was conducted in triplicate and the actual mean values are described.

In experiment [2] the target is T3, MC3-R (HEK-293 cells expressing MC3-R) (Homo sapiens, UniProt P41968).
T3 construct: expressed in transfected cells; host or cells: HEK-293
The experiment in a line: Ki determination by the method of Example 3, MC3-R. As to conditions: bound in μM. It is filed as cell-based.

For experiment [3], the target named is T4, MC4-R (HEK-293 cells expressing MC4-R) (Homo sapiens, UniProt P32245).
T4 construct: expressed in transfected cells; host or cells: HEK-293
The experiment is described as follows: Ki determination by the method of Example 3, MC4-R. In kind it is cell-based. Particulars: bound in μM.

A further experiment addresses T5, hMC5-R (Homo sapiens, UniProt P33032).
T5 construct: expressed in transfected cells
The experiment in a line: Competitive inhibition binding assay, 125I-NDP-α-MSH, hMC5-R. As to conditions: 1 μM test compound, 0.4 nM 125I-NDP-α-MSH, hMC5-R membranes, mean of triplicates, results less than 0% reported as 0%; for inhibition at 1 µM: read-out: Inhibition at 1 μM MC5-R. As to the method:
as §1, §2

Experiment [4] deals with T6, MC5-R (HEK-293 cells expressing MC5-R) (Homo sapiens, UniProt P33032).
T6 construct: expressed in transfected cells; host or cells: HEK-293
The experiment in a line: Ki determination by the method of Example 3, MC5-R. In kind it is cell-based.

The target in experiment [5] is T1, MC1-R (B-16 mouse melanoma cells). The experiment is described as follows: Competitive inhibition binding assay, 125I-NDP-α-MSH, MC1-R. As to conditions: 1 μM test compound; 0.4 nM 125I-NDP-α-MSH; B-16 mouse melanoma cell membranes; mean of triplicates; results less than 0% reported as 0%. As to the method:
as §1, §2

For the next experiment, the target named is T7, hMC4-R (Homo sapiens, UniProt P32245).
T7 construct: expressed in transfected cells
The experiment in a line: Competitive inhibition binding assay, 125I-NDP-α-MSH, hMC4-R. As to conditions: 1 μM test compound, 0.4 nM 125I-NDP-α-MSH, hMC4-R membranes, mean of triplicates, results less than 0% reported as 0%; for inhibition at 1 µM: read-out: Inhibition at 1 μM MC4-R. Here is the method: as §1, §2

As a reminder, the Ki is the dissociation constant of the complex between target and ligand, obtained from inhibition or displacement. By inhibition is commonly meant the change of the read-out against control, counted positive when it falls. As usually defined, the Inhibition is how much of the control response was suppressed.

Where two headings read alike, the source gives them in different places. Non-standard residues stand in square brackets, D forms with d. Residues, ends and D or L forms follow the SMILES beside them. *: point of attachment. Hyp = O=C(O)[C@@H]1C[C@@H](O)CN1; Nle = CCCC[C@H](N)C(=O)O; NH(CH2)3NH2 = NCCCN*; Bn = c1ccc(C*)cc1 A value given as a limit tells only on which side of the number the result lay.

T7 sequence (P32245 whole entry): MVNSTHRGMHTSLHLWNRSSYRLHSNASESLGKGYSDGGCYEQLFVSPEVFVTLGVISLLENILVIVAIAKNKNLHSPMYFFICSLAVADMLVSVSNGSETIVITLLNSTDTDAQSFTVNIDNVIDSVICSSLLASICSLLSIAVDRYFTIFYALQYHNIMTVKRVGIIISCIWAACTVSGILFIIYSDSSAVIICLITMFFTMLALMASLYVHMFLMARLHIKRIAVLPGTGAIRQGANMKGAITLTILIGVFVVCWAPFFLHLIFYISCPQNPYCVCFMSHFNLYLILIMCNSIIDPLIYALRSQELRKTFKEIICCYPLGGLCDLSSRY
T5 sequence (P33032 whole entry): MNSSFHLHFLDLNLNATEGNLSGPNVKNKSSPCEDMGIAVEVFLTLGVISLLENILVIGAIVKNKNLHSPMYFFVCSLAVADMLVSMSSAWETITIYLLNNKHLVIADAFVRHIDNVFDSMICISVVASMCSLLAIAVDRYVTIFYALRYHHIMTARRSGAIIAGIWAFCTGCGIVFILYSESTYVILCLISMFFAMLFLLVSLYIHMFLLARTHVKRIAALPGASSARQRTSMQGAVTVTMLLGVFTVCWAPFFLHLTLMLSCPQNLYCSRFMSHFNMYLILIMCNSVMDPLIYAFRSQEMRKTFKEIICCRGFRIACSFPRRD
T2 sequence (P41968 whole entry): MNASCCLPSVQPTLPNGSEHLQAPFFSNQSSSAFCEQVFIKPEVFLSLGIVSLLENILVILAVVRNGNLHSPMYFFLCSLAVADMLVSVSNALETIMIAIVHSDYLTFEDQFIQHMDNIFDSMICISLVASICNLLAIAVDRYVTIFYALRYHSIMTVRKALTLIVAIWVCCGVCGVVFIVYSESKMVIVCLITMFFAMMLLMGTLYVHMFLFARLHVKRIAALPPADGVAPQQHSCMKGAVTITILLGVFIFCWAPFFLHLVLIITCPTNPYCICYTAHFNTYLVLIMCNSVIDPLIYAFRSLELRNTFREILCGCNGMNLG
T1 sequence (Q01727 whole entry): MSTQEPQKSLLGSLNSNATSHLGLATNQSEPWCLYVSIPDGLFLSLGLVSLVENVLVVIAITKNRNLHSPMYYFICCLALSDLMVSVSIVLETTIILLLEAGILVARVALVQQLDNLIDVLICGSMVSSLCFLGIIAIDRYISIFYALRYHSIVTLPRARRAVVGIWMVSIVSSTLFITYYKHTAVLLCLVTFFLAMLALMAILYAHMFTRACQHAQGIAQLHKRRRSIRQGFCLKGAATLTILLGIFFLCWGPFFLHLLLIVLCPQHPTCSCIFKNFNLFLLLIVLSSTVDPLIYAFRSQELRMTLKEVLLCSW
T6 sequence (P33032 whole entry): as the sequence (P33032 whole entry) above
T4 sequence (P32245 whole entry): as the sequence (P32245 whole entry) above
T3 sequence (P41968 whole entry): as the sequence (P41968 whole entry) above

Turning to `CCCC[C@H](NC(C)=O)C(=O)N[C@@H](C)C(=O)N[C@@H](Cc1cnc[nH]1)C(=O)N[C@H](Cc1ccccc1)C(=O)N1C[C@H](OCc2ccccc2)C[C@H]1C(=O)NCCCN` [Example 9, Ac-Nle-Ala-His-D-Phe-Hyp(Bzl)-NH(CH2)3—NH2] (Ac-[Nle]AH[dF][Hyp](Bn)-{NH(CH2)3NH2}), the Ki is 10 nM in experiment [1] (MC1-R, values in nM, read-out: Ki (nM) MC1-R); more than 1 µM in experiment [2]; more than 1 µM in experiment [3]; more than 1 µM in experiment [4] (bound in μM, read-out: Ki MC5-R). Besides, the inhibition at 1 µM at hMC3-R stood at 13%; on hMC5-R it was 25%; in experiment [5], 91%; at hMC4-R, 8%.
Take `CCCC[C@H](N)C(=O)N[C@@H](C)C(=O)N[C@@H](Cc1cnc[nH]1)C(=O)N[C@H](Cc1ccccc1)C(=O)N1C[C@H](OCc2ccccc2)C[C@H]1C(=O)NCCCN` [Example 10] (H-[Nle]AH[dF][Hyp](Bn)-{NH(CH2)3NH2}): the Ki in experiment [1] was found to be 70 nM. Further, the inhibition at 1 µM at hMC3-R is 6%; on hMC5-R it was 7%; in experiment [5], 83%; at hMC4-R it was 2%.
Take `[2H]N[C@@H](Cc1cnc[nH]1)C(=O)N[C@@H](Cc1ccccc1)C(=O)N1C[C@H](OCc2ccccc2)C[C@H]1C(=O)NCCCN` [Example 12]: the inhibition at 1 µM at hMC3-R amounted to 0%; at hMC5-R it was 2%; in experiment [5], 48%; at hMC4-R it was 0%.
Turning to `C[C@@H]1CN(C(=O)[C@H](N)Cc2ccc(Cl)cc2)[C@@H](CCCNC(=N)N)CN1CCc1ccc2ccccc2c1` [Example 15], at hMC3-R, the “Inhibition at 1 μM MC3-R” value is 46%. Moreover, the “Inhibition at 1 μM MC5-R” value at hMC5-R turned out to be 34%. In addition, the “Inhibition at 1 μM MC1-R” value in experiment [5] came to 85%. Besides, at hMC4-R, the “Inhibition at 1 μM MC4-R” value was found to be 43%.
In the case of `NCCCNC(=O)[C@@H]1C[C@@H](OCc2ccccc2)CN1C(=O)[C@@H](Cc1ccc(Cl)cc1)NC(=O)[C@@H]1Cc2ccccc2CN1` [Example 21], the inhibition at 1 µM on hMC3-R worked out at 6%; at hMC5-R it was 48%; in experiment [5], 40%; on hMC4-R, 29%. In addition, in experiment [4] (value in nM, read-out: Ki (nM) MC5-R), the Ki is 1.15 µM.
With `NCCCNC(=O)[C@@H]1C[C@@H](OCc2ccccc2)CN1C(=O)[C@@H](Cc1ccc(Cl)cc1)NC(=O)[C@H]1Cc2ccccc2CN1` [Example 22], the inhibition at 1 µM on hMC3-R worked out at 10%; at hMC5-R, 38%; in experiment [5], 29%; on hMC4-R, 27%.
Taken in the same sequence, the figures for `NCCCNC(=O)[C@@H]1C[C@@H](OCc2ccccc2)CN1C(=O)[C@@H](Cc1ccccc1)NC(=O)[C@@H]1Cc2ccccc2CN1` [Example 23] were 0%, 14%, 34% and 6%.
For `NCCCNC(=O)[C@@H]1C[C@@H](OCc2ccccc2)CN1C(=O)[C@@H](Cc1ccccc1)NC(=O)[C@H]1Cc2ccccc2CN1` [Example 24] the same measures were 0%, 0%, 17% and 5%.
In the case of `[2H]N[C@@H](Cc1cnc[nH]1)C(=O)N[C@@H](Cc1ccccc1)C(=O)N1C[C@H](OCc2ccccc2)C[C@H]1C(=O)NCCCCN` [Example 25], the inhibition at 1 µM on hMC3-R was found to be 12%; on hMC5-R, 7%; in experiment [5], 50%; at hMC4-R it was 2%.
For `[2H]N[C@@H](Cc1cnc[nH]1)C(=O)N[C@@H](Cc1ccccc1)C(=O)N1C[C@H](OCc2ccccc2)C[C@H]1C(=O)NCCCCCN` [Example 26] the same measures were 0%, 7%, 42% and 1%.
Taken in the same sequence, the figures for `[2H]N[C@@H](Cc1cnc[nH]1)C(=O)N[C@@H](Cc1ccccc1)C(=O)N1C[C@H](OCc2ccccc2)C[C@H]1C(=O)NCCCCCCN` [Example 27] were 0%, 8%, 36% and 2%.
Taken in the same sequence, the figures for `[2H]N[C@@H](Cc1cnc[nH]1)C(=O)N[C@@H](Cc1ccccc1)C(=O)N1C[C@H](OCc2ccccc2)C[C@H]1C(N)=O` [Example 28, His-D-Phe-Hyp(Bzl)-NH2] were 0%, 5%, 0% and 0%.
On to `[2H]N[C@@H](Cc1cnc[nH]1)C(=O)N[C@@H](Cc1ccccc1)C(=O)N1C[C@H](OCc2ccccc2)C[C@H]1C(=O)NCCCNC(=N)N` [Example 29], for which the inhibition at 1 µM is 0% on hMC3-R, 4% at hMC5-R, 0% in experiment [5] and 6% on hMC4-R.
Turning to `CCCCCCC(=O)N[C@@H](Cc1cnc[nH]1)C(=O)N[C@H](Cc1ccccc1)C(=O)N1C[C@H](OCc2ccccc2)C[C@H]1C(=O)NCCCNC(=N)N` [Example 30, Heptanoyl-His-D-Phe-Hyp(Bzl)-NH(CH2)3—NH—C(═NH)—NH2], the “Inhibition at 1 μM MC3-R” value at hMC3-R is 7%. Also, the “Inhibition at 1 μM MC5-R” value at hMC5-R was found to be 1%. The “Inhibition at 1 μM MC1-R” value in experiment [5] was found to be 92%. Also, at hMC4-R, the “Inhibition at 1 μM MC4-R” value is on record as 1%.
In the case of `[2H]N[C@@H](Cc1ccccc1)C(=O)N1C2CC[C@H](COc3ccccc3)N2C(=O)[C@@H]1CCCCN` (stereo partly drawn) [Example 36], the “Inhibition at 1 μM MC3-R” value on hMC3-R is listed as 41%. The “Inhibition at 1 μM MC5-R” value on hMC5-R was determined as 0%. The “Inhibition at 1 μM MC1-R” value in experiment [5] is 0%. The “Inhibition at 1 μM MC4-R” value at hMC4-R is 8%.
In the case of `[2H]N[C@@H](Cc1ccccc1)C(=O)N1C2CC[C@H](COc3ccc4ccccc4c3)N2C(=O)[C@@H]1CCCCN` (stereo partly drawn) [Example 38], the “Inhibition at 1 μM MC3-R” value at hMC3-R was determined as 0%. Besides, at hMC5-R, the “Inhibition at 1 μM MC5-R” value came out at 1%. Also, in experiment [5], the “Inhibition at 1 μM MC1-R” value is 0%. The “Inhibition at 1 μM MC4-R” value at hMC4-R is reported as 13%.
`[2H]N[C@@H](Cc1cnc[nH]1)C(=O)N[C@@H](Cc1ccccc1)C(=O)N1C2CC[C@H](COc3ccc4ccccc4c3)N2C(=O)[C@@H]1CCCCN` (stereo partly drawn) [Example 42]: the “Inhibition at 1 μM MC3-R” value on hMC3-R came out at 0%. For the same compound, the “Inhibition at 1 μM MC5-R” value on hMC5-R worked out at 0%. Also, in experiment [5], the “Inhibition at 1 μM MC1-R” value is on record as 18%. The “Inhibition at 1 μM MC4-R” value at hMC4-R was determined as 10%.
As for `[2H]N1CCC[C@@H]1C(=O)N[C@@H](Cc1ccccc1)C(=O)N1C[C@H](OCc2ccccc2)C[C@H]1C(=O)NCCCN` [Example 44], the inhibition at 1 µM at hMC3-R worked out at 0%; on hMC5-R, 0%; in experiment [5], 13%; on hMC4-R, 11%.
